Like-named read-outs stand apart in the source and are kept apart here.
Assays:
[1] = Stability of pegloticase diluted in infusion bags; assay type: physicochemical; conditions: at 2° C. to 8° C. and at room temperature (20° C. to 25° C.)
Procedure: Pegloticase diluted in infusion bags was stable for 4 hours at 2° C. to 8° C. (36° F. to 46° F.) and at room temperature (20° C. to 25° C., 68° F. to 77° F.); however, the diluted solution was stored under refrigeration, not frozen, protected from light, and used within 4 hours of dilution. Before administration, the diluted solution of pegloticase was allowed to reach room temperature. Pegloticase in a vial or IV infusion fluid was never subjected to artificial heating.

[2] = tested on: patients with refractory chronic gout; conditions: Phase 2 program; cited from earlier work
[3] = MTX polyglutamates 1 to 5 in red blood cells, MIRROR OL; assay type: in vivo, human; conditions: during the treatment course; FIG. 2
Procedure: Blood samples were collected prior to pegloticase infusion on Day 1 and at the Weeks 4, 8, 22 and 36 Visits or at Day 1 and weeks 14, 24, and 36 visits during the Pegloticase+IMM for MTX Polyglutamate analysis for the open-label and randomized studies, respectively.
Methods: In the MIRROR OL trial, MTX (15 mg/week) was given orally 4 weeks prior to the first pegloticase dose and continued weekly, in combination with pegloticase 8 mg given intravenously every 2 weeks, for a treatment duration of up to 52 weeks. Pre-infusion samples were collected to measure MTX-PGs 1 to 5 in red blood cells at day 1, week 4, 8, 22, 24 and 36. […] Pegloticase concentrations in serum was measured using a validated enzymatic/fluorescence assay. The limit of quantification is 0.6 μg/mL. Anti-pegloticase/PEG IgG antibodies (ADA) were measured using a validated enzyme linked immunosorbent assay (ELISA). The analysis of MTX Polyglutamates was conducted by Exagen. The impact of MTX on pegloticase PK was evaluated by two methods: (1) Comparing pegloticase exposures (median Cmax and Cmin across visits) with MTX from the MIRROR OL trial to the observed levels in historical monotherapy Phase 3 studies (C0405 and C0406) (Lipsky et al., Arthritis Res Ther 16(2), 2014; Sundy et al., JAMA 306(7), 2011). […]

[4] = tested on: adult patients with uncontrolled gout
Description: As used herein, an “adverse event” or “AE” refers to any untoward medical occurrence associated with the use of a drug in humans, whether it is considered drug-related or not. An AE or suspected adverse reaction is considered a “serious adverse event” or “SAE” if, in the view of either the Investigator or Sponsor, it results in any of the following outcomes: (1) Death, (2) Life-threatening: an AE is considered “life-threatening” if, in the view of either the Investigator or Sponsor, its occurrence places the subject or subject at immediate risk of death. […] (5) A congenital anomaly/birth defect; (6) Important medical events that may not result in death, be life-threatening, or require hospitalization may be considered serious when, based upon appropriate medical judgment, they may jeopardize the patient or subject and may require medical or surgical intervention to prevent one of the outcomes listed in this definition.
Safety Variables: Safety was assessed via AE and concomitant medication use monitoring, physical examinations, vital signs, clinical safety laboratory evaluations (hematology, chemistry, urine uric acid:creatinine ratio), pregnancy testing (if applicable), electrocardiograms (ECGs), and AEs of special interest (i.e., IRs, anaphylaxis, gout flares, and cardiovascular events).
AEs of special interest may include IRs, anaphylaxis, gout flares, and cardiovascular events.
Severity in accordance with the disclosure is reported according to the following: Grade 1 (Mild)—No interference with daily activity. Grade 2 (Moderate)—Some interference with daily activity but medical intervention not required (e.g., doctor visit and/or medication); over the counter medicine permitted. Grade 3 (Severe)—Prevents daily activity and requires medical intervention (e.g., doctor visit and/or medication). Grade 4 (Potentially Life-threatening)—Emergency room visit or hospitalization.
An AE was defined as any untoward event, whether or not it was considered related to the use of pegloticase or MTX. Any worsening (i.e., any clinically significant adverse change in frequency or intensity) of a preexisting condition which was temporally associated with the use of pegloticase or MTX was also considered an AE. Abnormal laboratory values or test results constitute AEs only if they induce clinical signs or symptoms or require therapy, and were recorded on the AE CRF under the signs, symptoms or were associated with diagnoses associated with them. Screening conditions were not considered AE; however, worsening of a preexisting condition may be considered an AE. AEs were collected starting at the baseline, Visit 1.
TEAEs during the Pegloticase+IMM Period were defined as events that occur after the start of the first pegloticase infusion through 30 days after the last dose of pegloticase and/or MTX or placebo for MTX (whichever was later). TEAEs that occur during the MTX Tolerability Assessment Period prior to randomization (Weeks −6 to −4) was summarized separately for the MTX population. […] AEs that occur more than 30 days after the last dose of pegloticase and/or MTX or placebo for MTX through the 6-month follow-up visit was also summarized.
The number and percentage of subjects experiencing AEs were summarized by system organ class and preferred term. Summaries by maximum severity and relationship to MTX and/or pegloticase was also provided. SAEs and AEs leading to discontinuation of MTX and/or pegloticase were presented by system organ class and preferred term.

[5] = tested on: adult patients with uncontrolled gout; conditions: human, in vivo
[6] = Methotrexate Run-in Period, ITT (N = 15)
[7] = Methotrexate Run-in Period, mITT (N = 14)

pegloticase
stability of pegloticase diluted in infusion bags [1]: 4 h | dose-response plateau dose [2]: 12 mg | minimally effective dose [2]: 4 mg | safe and optimally effective dose [2]: 8 mg

CN(Cc1cnc2nc(N)nc(N)c2n1)c1ccc(C(=O)N[C@@H](CCC(=O)O)C(=O)O)cc1 [MTX, methotrexate]
Concentrations of MTX-PGs [3]: maintained | Infections And Infestations, % [4]: (13.3) % | Abdominal Discomfort, % [4, 6]: (13.3) % | Abdominal Discomfort, Incidence Rate [4, 6]: 1.8 Events/PY of MTX | Any TEAEs, % [4, 6]: (66.7) % | Any TEAEs, Incidence Rate [4, 6]: 18.2 Events/PY of MTX | Blood And Lymphatic System Disorders, % [4, 6]: (6.7) % | Blood And Lymphatic System Disorders, Incidence Rate [4, 6]: 1.8 Events/PY of MTX | Chronic Sinusitis, % [4, 6]: (6.7) % | Chronic Sinusitis, Incidence Rate [4, 6]: 0.9 Events/PY of MTX | Cough, % [4, 6]: (6.7) % | Cough, Incidence Rate [4, 6]: 0.9 Events/PY of MTX | Dental Caries, % [4, 6]: (6.7) % | Dental Caries, Incidence Rate [4, 6]: 0.9 Events/PY of MTX | Diarrhoea, % [4, 6]: (6.7) % | Diarrhoea, Incidence Rate [4, 6]: 0.9 Events/PY of MTX | Dry Eye, % [4, 6]: (6.7) % | Dry Eye, Incidence Rate [4, 6]: 0.9 Events/PY of MTX | Eye Disorders, % [4, 6]: (6.7) % | Eye Disorders, Incidence Rate [4, 6]: 0.9 Events/PY of MTX | Gastrointestinal Disorders, % [4, 6]: (33.3) % | Gastrointestinal Disorders, Incidence Rate [4, 6]: 5.5 Events/PY of MTX | Gout, % [4, 6]: (33.3) % | Gout, Incidence Rate [4, 6]: 5.5 Events/PY of MTX | Headache, % [4, 6]: (6.7) % | Headache, Incidence Rate [4, 6]: 0.9 Events/PY of MTX | Leukopenia, % [4, 6]: (6.7) % | Leukopenia, Incidence Rate [4, 6]: 0.9 Events/PY of MTX | Metabolism And Nutrition Disorders, % [4, 6]: (33.3) % | Metabolism And Nutrition Disorders, Incidence Rate [4, 6]: 5.5 Events/PY of MTX | Nasopharyngitis, % [4, 6]: (6.7) % | Nasopharyngitis, Incidence Rate [4, 6]: 0.9 Events/PY of MTX | Nausea, % [4, 6]: (13.3) % | Nausea, Incidence Rate [4, 6]: 1.8 Events/PY of MTX | Nervous System Disorders, % [4, 6]: (6.7) % | Nervous System Disorders, Incidence Rate [4, 6]: 0.9 Events/PY of MTX | Neutropenia, % [4, 6]: (6.7) % | Neutropenia, Incidence Rate [4, 6]: 0.9 Events/PY of MTX | Pruritus, % [4, 6]: (6.7) % | Pruritus, Incidence Rate [4, 6]: 0.9 Events/PY of MTX | Respiratory, Thoracic And Mediastinal Disorders, % [4, 6]: (6.7) % | Respiratory, Thoracic And Mediastinal Disorders, Incidence Rate [4, 6]: 0.9 Events/PY of MTX | Skin And Subcutaneous Tissue Disorders, % [4, 6]: (6.7) % | Skin And Subcutaneous Tissue Disorders, Incidence Rate [4, 6]: 0.9 Events/PY of MTX | Abdominal Discomfort, % [4, 7]: (14.3) % | Abdominal Discomfort, Incidence Rate [4, 7]: 2.0 Events/PY of MTX | Any TEAEs, % [4, 7]: (71.4) % | Any TEAEs, Incidence Rate [4, 7]: 20.0 Events/PY of MTX | Blood And Lymphatic System Disorders, % [4, 7]: (7.1) % | Blood And Lymphatic System Disorders, Incidence Rate [4, 7]: 2.0 Events/PY of MTX | Chronic Sinusitis, % [4, 7]: (7.1) % | Chronic Sinusitis, Incidence Rate [4, 7]: 1.0 Events/PY of MTX | Cough, % [4, 7]: (7.1) % | Cough, Incidence Rate [4, 7]: 1.0 Events/PY of MTX | Dental Caries, % [4, 7]: (7.1) % | Dental Caries, Incidence Rate [4, 7]: 1.0 Events/PY of MTX | Diarrhoea, % [4, 7]: (7.1) % | Diarrhoea, Incidence Rate [4, 7]: 1.0 Events/PY of MTX | Dry Eye, % [4, 7]: (7.1) % | Dry Eye, Incidence Rate [4, 7]: 1.0 Events/PY of MTX | Eye Disorders, % [4, 7]: (7.1) % | Eye Disorders, Incidence Rate [4, 7]: 1.0 Events/PY of MTX | Gastrointestinal Disorders, % [4, 7]: (35.7) % | Gastrointestinal Disorders, Incidence Rate [4, 7]: 6.0 Events/PY of MTX | Gout, % [4, 7]: (35.7) % | Gout, Incidence Rate [4, 7]: 6.0 Events/PY of MTX | Headache, % [4, 7]: (7.1) % | Headache, Incidence Rate [4, 7]: 1.0 Events/PY of MTX | Infections And Infestations, % [4, 7]: (14.3) % | Infections And Infestations, Incidence Rate [4, 7]: 2.0 Events/PY of MTX | Infections And Infestations, Total Events [4, 7]: 2 | Leukopenia, % [4, 7]: (7.1) % | Leukopenia, Incidence Rate [4, 7]: 1.0 Events/PY of MTX | Metabolism And Nutrition Disorders, % [4, 7]: (35.7) % | Metabolism And Nutrition Disorders, Incidence Rate [4, 7]: 6.0 Events/PY of MTX | Nasopharyngitis, % [4, 7]: (7.1) % | Nasopharyngitis, Incidence Rate [4, 7]: 1.0 Events/PY of MTX | Nausea, % [4, 7]: (14.3) % | Nausea, Incidence Rate [4, 7]: 2.0 Events/PY of MTX | Nervous System Disorders, % [4, 7]: (7.1) % | Nervous System Disorders, Incidence Rate [4, 7]: 1.0 Events/PY of MTX | Neutropenia, % [4, 7]: (7.1) % | Neutropenia, Incidence Rate [4, 7]: 1.0 Events/PY of MTX | Pruritus, % [4, 7]: (7.1) % | Pruritus, Incidence Rate [4, 7]: 1.0 Events/PY of MTX | Respiratory, Thoracic And Mediastinal Disorders, % [4, 7]: (7.1) % | Respiratory, Thoracic And Mediastinal Disorders, Incidence Rate [4, 7]: 1.0 Events/PY of MTX | Skin And Subcutaneous Tissue Disorders, % [4, 7]: (7.1) % | Skin And Subcutaneous Tissue Disorders, Incidence Rate [4, 7]: 1.0 Events/PY of MTX | Infections And Infestations, Incidence Rate ([4]; human, in vivo, 4 weeks): 1.8 Events/PY of MTX | Infections And Infestations, Total Events ([4]; human, in vivo, 4 weeks): 2 | tolerability of MTX ([4]; oral 15 mg/week, all patients): tolerated | Number of gout flares among subjects with at least one gout flare, Mean (SD) [5]: 1.2 | Number of gout flares among subjects with at least one gout flare, Median [5]: 1.0 | Any Gout Flares Since the Last Visit, % ([5]; 1 day): (57.1) % | Maximum Reported Intensity of Flare (0-10 scale), Mean ([5]; 1 day): 5.8 | Maximum Reported Intensity of Flare (0-10 scale), Median ([5]; 1 day): 5.5 | Maximum Reported Intensity of Flare (0-10 scale), Min, Max ([5]; 1 day): 4, 8 | Pain at rest > 3 out of 10, % ([5]; 1 day): (57.1) % | Pain different than normal, % ([5]; 1 day): (50.0) % | Swelling in Joints, % ([5]; 1 day): (42.9) % | Maximum Reported Intensity of Flare (0-10 scale), Median ([5]; -4 week): 8.0 | Maximum Reported Intensity of Flare (0-10 scale), Min, Max ([5]; -4 week): 7, 10

— patent US20220409620A1, “REDUCING IMMUNOGENICITY TO PEGLOTICASE” (Horizon Pharma Rheumatology LLC, priority 2016, published 2022)
